Measured values as given in PubChem BioAssay (NCI).
Where “and” joins values, the source holds several entries; their conditions need not be identical. Equal values may be shown once.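 All cell lines were grown in 96-well plates and treated with compound for 48 hours. The concentration for 50% growth inhibition is given as GI50. TGI denotes the concentration required for complete inhibition of growth.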

Tests used:
Assay in all cases: NCI-60 cell line screen, 48 h
HL-60(TB) leukemia = system: HL-60(TB) leukemia
HOP-92 NSCLC = system: HOP-92 NSCLC
LOX IMVI melanoma = system: LOX IMVI melanoma
MCF7 breast = system: MCF7 breast
RPMI-8226 leukemia = system: RPMI-8226 leukemia
SF-268 CNS = system: SF-268 CNS
SF-539 CNS = system: SF-539 CNS
SK-MEL-2 melanoma = system: SK-MEL-2 melanoma
SK-OV-3 ovarian = system: SK-OV-3 ovarian
UO-31 renal = system: UO-31 renal

Row | Structure (SMILES) | TGI (HL-60(TB) leukemia) | TGI (HOP-92 NSCLC) | TGI (LOX IMVI melanoma) | TGI (MCF7 breast) | TGI (RPMI-8226 leukemia) | TGI (SF-268 CNS) | TGI (SF-539 CNS) | TGI (SK-MEL-2 melanoma) | TGI (SK-OV-3 ovarian) | TGI (UO-31 renal) | GI50 (HL-60(TB) leukemia) | GI50 (HOP-92 NSCLC) | GI50 (LOX IMVI melanoma) | GI50 (MCF7 breast) | GI50 (RPMI-8226 leukemia) | GI50 (SF-268 CNS) | GI50 (SF-539 CNS) | GI50 (SK-MEL-2 melanoma) | GI50 (SK-OV-3 ovarian) | GI50 (UO-31 renal)
1 | CCCCCCCCCCCCCCCC(=O)OCC1OC(OC)C(NC(=O)N(CCCl)N=O)C(O)C1O (configuration not stated) | 28.3 µM | 47.8 µM | 17.5 µM | > 100 µM | 61.6 µM | 37.4 µM | 15.3 µM | 36.8 µM | 63 µM | 48.9 µM | – | – | – | – | – | – | – | – | – | –
2 | CN(C)CC1CCCCCC(Br)C1=O (configuration not stated) | 30.1 µM | 22.2 µM | 29.8 µM | 12.7 µM | 3.96 µM | > 66.1 µM | 31.8 µM | 54.4 µM | > 100 µM | 26.6 µM | – | – | – | – | – | – | – | – | – | –
3 | COc1ccc(/C=C\c2cc(OC)c(OC)c(OC)c2)cc1OCC(=O)Nc1nc2ccccc2s1 | > 100 µM | > 31.1 µM | > 100 µM | > 100 µM | > 100 µM | > 100 µM | > 100 µM | > 100 µM | > 100 µM | > 100 µM | 0.0275 µM | 0.204 µM | 0.0808 µM | 0.113 µM | 0.683 µM | 0.23 µM | 0.187 µM | 0.187 µM | 0.374 µM | 0.381 µM
4 | O=C(Cn1c(C(=O)c2ccc(Cl)cc2)nc(-c2ccccc2)c1-c1ccccc1)c1ccc(Cl)cc1 | > 100 µM | > 100 µM | > 100 µM | > 100 µM | > 100 µM | > 100 µM | > 100 µM | > 100 µM | > 100 µM | > 100 µM | > 100 µM | 23.9 µM | > 100 µM | > 100 µM | > 100 µM | > 100 µM | > 100 µM | > 100 µM | > 100 µM | > 100 µM
5 | O=C1/C(=C/c2ccc(Cl)c(Cl)c2)CNC/C1=C\c1ccc(Cl)c(Cl)c1 | > 64.2 µM | 50.7 µM | 13.5 µM | 50 µM | > 49.8 µM | 16.4 µM | 15.9 µM | 49.3 µM | 69.6 µM | 32.2 µM | – | – | – | – | – | – | – | – | – | –
6 | COc1ccc(/C=N\NC(=O)c2ccc3nc(-c4ccc(Cl)cc4)[nH]c3c2)cc1 | > 100 µM | 4.11 µM | 4.01 µM | 3.84 µM | 4.77 µM | 5.1 µM | 3.46 µM | 13.8 µM | 12.8 µM | 6.38 µM | 13 µM | 1.52 µM | 2.19 µM | 1.47 µM | 0.997 µM | 2.09 µM | 1.73 µM | 3.59 µM | 2.3 µM | 1.86 µM
7 | O=C(c1ccco1)c1nc2cc(C(F)(F)F)ccc2[n+]([O-])c1C(F)(F)F | > 100 µM | > 100 µM | > 100 µM | > 100 µM | > 100 µM | > 100 µM | > 100 µM | > 100 µM | > 100 µM | > 100 µM | 78.1 µM | 36.7 µM | 40.1 µM | 6.57 µM | 20.3 µM | 52.4 µM | 81.8 µM | 46 µM | > 100 µM | 58.8 µM
8 | c1ccc2cc(C[n+]3ccn(Cc4ccc5ccccc5n4)c3)ccc2c1 | 0.653 µM and 3.05 µM | – | 1.68 µM and 11.4 µM | 2.36 µM and 13.4 µM | – | 11.3 µM and 18.3 µM | 11.4 µM and 13.8 µM | 1.8 µM and 8.98 µM | 4.3 µM and 17.7 µM | 25.4 µM and > 100 µM | 0.214 µM and 0.827 µM | 0.184 µM and 1.66 µM | 0.435 µM and 2.9 µM | 0.353 µM and 2.98 µM | 0.196 µM and 0.876 µM | 0.434 µM and 3.79 µM | 0.421 µM and 2.72 µM | 0.381 µM and 2.44 µM | 0.671 µM and 3.64 µM | 10.6 µM and 35.8 µM
9 | O=C1CC(c2ccsc2)c2snc(-c3ccc(Cl)cc3)c2N1 (configuration not stated) | 3.33 µM | 81.8 µM | > 100 µM | > 100 µM | 5.44 µM | > 100 µM | > 100 µM | > 100 µM | 12 µM | > 100 µM | 1.11 µM | 3.87 µM | 1 µM | 0.563 µM | 0.6 µM | 4.87 µM | 2.9 µM | 3.93 µM | 2.17 µM | 3.86 µM
10 | COc1ccc2c(c1)[nH]c(=O)c1c3cc(OC)c(OC)cc3cn21 | < 0.0104 µM | 17.4 µM | 1.69 µM | 1.28 µM | – | 1.45 µM | 0.0618 µM | 20.8 µM | 17.5 µM | 17.4 µM | < 0.01 µM | 0.0272 µM | < 0.01 µM | 0.0323 µM | < 0.0134 µM | < 0.01 µM | 0.0175 µM | 0.0303 µM | < 0.0111 µM | < 0.01 µM
